Like-named read-outs stand apart in the source and are kept apart here.
Tested on: primary rat mixed cortical cells
Experiment: In vitro myelination assay (MBP positive myelin strands, fold myelin pixels above background)
Type: cell-based
Details: Rattus norvegicus; for fold induction at 1 µM: 1.0 μM compound; for fold induction at 10 µM: 10.0 μM compound
Method in brief: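 Mixed cortical culture, P1 rat, 87,500-95,000 cells/well; compound present from seeding, refreshed days 6 and 10; 14 d, 37 °C, 5% CO2. Day 14: PFA fix, anti-MBP + Hoechst. Read-out: fold MBP myelin pixels over untreated, tested at 1.0 and 10.0 μM.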

[1] = read-out: Fold myelin pixels above background relative to baseline of no added compound
[2] = relative to baseline of no added compound, read-out: Fold myelin pixels above background, 1.0 μM
[3] = relative to baseline of no added compound, read-out: Fold myelin pixels above background, 10.0 μM
[4] = relative to baseline of no added compound, read-out: Fold myelin pixels above background

| Structure (SMILES) | fold induction at 1 µM [2] | fold induction at 10 µM [3] | fold induction at 1 µM [4] | fold induction at 10 µM [4] | further results |
| --- | --- | --- | --- | --- | --- |
| Cc1cc(Nc2ncn(-c3cc(F)cc(F)c3)n2)cc(N2CCC(N3CCC(O)C3)C2)c1 (centres unmarked) [Compound 1040, 1-[1-[3-[[1-(3,5-difluorophenyl)-1,2,4-triazol-3-yl]amino]-5-methyl-phenyl]pyrrolidin-3-yl]pyrrolidin-3-ol] | – | – | – | – | fold induction at 1 µM [1]: 10 to 100; fold induction at 10 µM [1]: ≤ 1 |
| CC1CCN(c2cc(Nc3ncn(-c4ccc(F)c(F)c4)n3)cc(C3CC3)n2)CC1 [Compound 202, 2-cyclopropyl-N-[1-(3,4-difluorophenyl)-1,2,4-triazol-3-yl]-6-(4-methyl-1-piperidyl)pyridin-4-amine] | 100 to 1000 | 10 to 100 | – | – | – |
| Cc1cc(Nc2ncn(-c3ccc(F)c(F)c3)n2)cc(N2CCN(C)CC2)n1 [Compound 263, N-[1-(3,4-difluorophenyl)-1,2,4-triazol-3-yl]-2-methyl-6-(4-methylpiperazin-1-yl)pyridin-4-amine] | 10 to 100 | 100 to 1000 | – | – | – |
| Cc1cc(Nc2ncn(-c3cc(F)cc(F)c3)n2)cc(N2CC3(C2)CN(C(C)C)C3)c1 [Compound 1081, 1-(3,5-difluorophenyl)-N-[3-(2-isopropyl-2,6-diazaspiro[3.3]heptan-6-yl)-5-methyl-phenyl]-1,2,4-triazol-3-amine] | – | – | – | – | fold induction at 1 µM [1]: 1 to 10; fold induction at 10 µM [1]: 1 to 10 |
| Cc1cc(Nc2ncn(-c3cnccn3)n2)cc([C@]2(C)CNC(=O)O2)c1 (single isomer, unassigned) [Compound 682] | – | – | 10 to 100 | 10 to 100 | – |
| Cc1cc(Nc2ncn(-c3cc(F)cc(F)c3)n2)c(F)c(N2CC3(C2)CN(C(C)C)C3)c1 [Compound 1072, 1-(3,5-difluorophenyl)-N-[2-fluoro-3-(2-isopropyl-2,6-diazaspiro[3.3]heptan-6-yl)-5-methyl-phenyl]-1,2,4-triazol-3-amine] | – | – | – | – | fold induction at 1 µM [1]: 1 to 10; fold induction at 10 µM [1]: ≤ 1 |
| Cc1cc(Nc2ncn(-c3cc(F)cc(F)c3)n2)cc(N2CC(N3CCOC(C)(C)C3)C2)c1 [Compound 602, 1-(3,5-difluorophenyl)-N-[3-[3-(2,2-dimethylmorpholin-4-yl)azetidin-1-yl]-5-methyl-phenyl]-1,2,4-triazol-3-amine] | – | – | 1 to 10 | 1 to 10 | – |
| Cc1cc(Nc2ncn(-c3ccncn3)n2)cc(C2CCCN(C3COC3)C2)c1 (centres unmarked) [Compound 180, N-[3-methyl-5-[1-(oxetan-3-yl)-3-piperidyl]phenyl]-1-pyrimidin-4-yl-1,2,4-triazol-3-amine] | 100 to 1000 | ≤ 1 | – | – | – |
| COCC1CCN(c2cc(C(F)F)cc(Nc3ncn(-c4cccc(C(F)F)c4)n3)n2)CC1 [Compound 645, 4-(difluoromethyl)-N-[1-[3-(difluoromethyl)phenyl]-1,2,4-triazol-3-yl]-6-[4-(methoxymethyl)-1-piperidyl]pyridin-2-amine] | – | – | 1 to 10 | 10 to 100 | – |
| Fc1cc(F)cc(-n2cnc(Nc3cc(C4CC4)nc(N4CCCC4)c3)n2)c1 [Compound 170, 2-cyclopropyl-N-[1-(3,5-difluorophenyl)-1,2,4-triazol-3-yl]-6-pyrrolidin-1-yl-pyridin-4-amine] | 10 to 100 | 100 to 1000 | – | – | – |
| Cc1cc(Nc2ncn(-c3cc(F)cc(F)c3)n2)cc(N2CCOC(CN3CCN(C)CC3)C2)c1 (centres unmarked) [Compound 954, 1-(3,5-difluorophenyl)-N-[3-methyl-5-[2-[(4-methylpiperazin-1-yl)methyl]morpholin-4-yl]phenyl]-1,2,4-triazol-3-amine] | – | – | – | – | fold induction at 1 µM [1]: 1 to 10; fold induction at 10 µM [1]: ≤ 1 |
| Cc1cc(Nc2ncn(-c3cc(F)cc(F)c3)n2)cc(N2CCN(CCCO)CC2)c1 [Compound 990, 3-[4-[3-[[1-(3,5-difluorophenyl)-1,2,4-triazol-3-yl]amino]-5-methyl-phenyl]piperazin-1-yl]propan-1-ol] | – | – | – | – | fold induction at 1 µM [1]: ≤ 1; fold induction at 10 µM [1]: ≤ 1 |
| Fc1cc(Nc2ncn(-c3cccc(F)c3)n2)cc(C2CCN(C3COC3)C2)c1 (centres unmarked) [Compound 230, N-[3-fluoro-5-[1-(oxetan-3-yl)pyrrolidin-3-yl]phenyl]-1-(3-fluorophenyl)-1,2,4-triazol-3-amine] | 1000 to 10000 | ≤ 1 | – | – | – |
| Fc1cncc(-n2cnc(Nc3cc(C4CC4)cc(N4CCN(C5COC5)CC4)c3)n2)c1 [Compound 339, N-[3-cyclopropyl-5-[4-(oxetan-3-yl)piperazin-1-yl]phenyl]-1-(5-fluoro-3-pyridyl)-1,2,4-triazol-3-amine] | 100 to 1000 | 10 to 100 | – | – | – |
| Cc1cc(Nc2ncn(-c3cc(F)cc(F)c3)n2)cc(N2CCN(C3CCCN(C)C3)CC2)c1 (centres unmarked) [Compound 892, 1-(3,5-difluorophenyl)-N-[3-methyl-5-[4-(1-methyl-3-piperidyl)piperazin-1-yl]phenyl]-1,2,4-triazol-3-amine] | – | – | – | – | fold induction at 1 µM [1]: 1 to 10; fold induction at 10 µM [1]: ≤ 1 |
| CCN1CCOC(CNc2cc(C)cc(Nc3ncn(-c4cc(F)cc(F)c4)n3)c2)C1 (centres unmarked) [Compound 893, N3-[1-(3,5-difluorophenyl)-1,2,4-triazol-3-yl]-N1-[(4-ethylmorpholin-2-yl)methyl]-5-methyl-benzene-1,3-diamine] | – | – | – | – | fold induction at 1 µM [1]: 1 to 10; fold induction at 10 µM [1]: ≤ 1 |
| CC(C)(C)OC(=O)N1CCN(c2cc(C(F)(F)F)cc(Nc3ncn(-c4cc(F)cc(F)c4)n3)n2)CC1 [Compound 557, tert-butyl 4-[6-[[1-(3,5-difluorophenyl)-1,2,4-triazol-3-yl]amino]-4-(trifluoromethyl)-2-pyridyl]piperazine-1-carboxylate] | – | – | ≤ 1 | ≤ 1 | – |
| Clc1cc(Nc2ncn(-c3cnccn3)n2)cc(N2CC(N3CCOCC3)C2)c1 [Compound 753, N-[3-chloro-5-(3-morpholinoazetidin-1-yl)phenyl]-1-pyrazin-2-yl-1,2,4-triazol-3-amine] | – | – | 10 to 100 | 100 to 1000 | – |
| N#Cc1cc(Nc2ncn(-c3cnccn3)n2)cc(N2CCOCC2)c1 [Compound 666, 3-morpholino-5-[(1-pyrazin-2-yl-1,2,4-triazol-3-yl)amino]benzonitrile] | – | – | 10 to 100 | 1 to 10 | – |
| Cc1cc(Nc2ncn(-c3cc(F)cc(F)c3)n2)nc(N2CCCC(CO)C2)c1 (centres unmarked) [Compound 815, [1-[6-[[1-(3,5-difluorophenyl)-1,2,4-triazol-3-yl]amino]-4-methyl-2-pyridyl]-3-piperidyl]methanol] | – | – | – | – | fold induction at 1 µM [1]: 1 to 10; fold induction at 10 µM [1]: 10 to 100 |
| CSc1cccc(-n2cnc(Nc3cc(C)cc(N4CCN(C5COC5)CC4)c3)n2)c1 [Compound 439, N-[3-methyl-5-[4-(oxetan-3-yl)piperazin-1-yl]phenyl]-1-(3-methylsulfanylphenyl)-1,2,4-triazol-3-amine] | – | – | 1 to 10 | 1 to 10 | – |
| Cc1cc(Nc2ncn(-c3cc(F)cc(F)c3)n2)cc(N2CC(CO)C2)c1 [Compound 493, [1-[3-[[1-(3,5-difluorophenyl)-1,2,4-triazol-3-yl]amino]-5-methyl-phenyl]azetidin-3-yl]methanol] | – | – | – | ≤ 1 | – |
| Cc1cc(Nc2ncn(-c3cccc(C(F)F)c3)n2)cc(N2CC(N3CCOCC3)C2)c1 [Compound 595, 1-[3-(difluoromethyl)phenyl]-N-[3-methyl-5-(3-morpholinoazetidin-1-yl)phenyl]-1,2,4-triazol-3-amine] | – | – | 1 to 10 | ≤ 1 | – |
| COc1ccc(-n2cnc(Nc3cc(C)cc(N4CCN(C5COC5)CC4)c3)n2)cc1F [Compound 624, 1-(3-fluoro-4-methoxy-phenyl)-N-[3-methyl-5-[4-(oxetan-3-yl)piperazin-1-yl]phenyl]-1,2,4-triazol-3-amine] | – | – | 10 to 100 | ≤ 1 | – |
| Fc1cc(Nc2ncn(-c3cccc(F)c3)n2)cc(NC2CNC2)c1 [Compound 351, N1-(azetidin-3-yl)-5-fluoro-N3-[1-(3-fluorophenyl)-1,2,4-triazol-3-yl]benzene-1,3-diamine] | 10 to 100 | ≤ 1 | – | – | – |
| c1cncc(-n2cnc(Nc3cc(C4CCOCC4)cc(C4CCOCC4)c3)n2)c1 [Compound 250, N-[3,5-di(tetrahydropyran-4-yl)phenyl]-1-(3-pyridyl)-1,2,4-triazol-3-amine] | 100 to 1000 | 10 to 100 | – | – | – |
| Cc1cc(Nc2ncn(-c3cc(F)cc(F)c3)n2)nc(N2CCNCC2)c1 [Compound 529, N-[1-(3,5-difluorophenyl)-1,2,4-triazol-3-yl]-4-methyl-6-piperazin-1-yl-pyridin-2-amine] | – | – | 1 to 10 | ≤ 1 | – |
| CCN1CCN(c2cc(C(F)(F)F)cc(Nc3ncn(-c4cc(F)cc(F)c4)n3)n2)CC1 [Compound 654, N-[1-(3,5-difluorophenyl)-1,2,4-triazol-3-yl]-6-(4-ethylpiperazin-1-yl)-4-(trifluoromethyl)pyridin-2-amine] | – | – | 1 to 10 | 1 to 10 | – |
| Cc1cc(Nc2ncn(-c3cc(F)cc(F)c3)n2)cc(N2CCN(C(=O)C(F)(F)F)CC2)c1 [Compound 352, 1-[4-[3-[[1-(3,5-difluorophenyl)-1,2,4-triazol-3-yl]amino]-5-methyl-phenyl]piperazin-1-yl]-2,2,2-trifluoro-ethanone] | ≤ 1 | 100 to 1000 | – | – | – |
| Cc1cc(Nc2ncn(-c3cc(C)nc(C)n3)n2)cc(N2CCN(C3COC3)CC2)c1 [Compound 312, 1-(2,6-dimethylpyrimidin-4-yl)-N-[3-methyl-5-[4-(oxetan-3-yl)piperazin-1-yl]phenyl]-1,2,4-triazol-3-amine] | 1 to 10 | 1 to 10 | – | – | – |
